Patent US7294637B2 (Sepracor, Inc., priority 2000, dated 2007)
Like-named read-outs stand apart in the source and are kept apart here.

What was measured:
rats [1] = assay: Behavioral despair assay in rats, 3 i.p. injections (Example 143); type: in vivo, rat; conditions: for % variation of the total duration of immobility: 3 i.p. injections 24 h, 5 h and 1 h before test
From the text: The objective of this study was to assess the antidepressant effects of test compounds 124, 125, 126, and 127 in the behavioral despair assay in rats according to the methods described by Porsolt R. D., Anton G., Blavet N., Jalfre M., Behavioural despair in rats: a new model sensitive to antidepressant treatment, Eur. J. Pharmacol., 1978, 47, 379-391. The animals were preconditioned in a pretest session, where the rats were individually forced to swim inside a vertical plexiglass cylinder containing water maintained at 19-20° C. After 15 minutes in the water, they were allowed to dry for 15 minutes in a heated enclosure. Twenty four hours later, they were replaced in the cylinder and the total duration of immobility was measured during a 5 minute test (test session). The test compounds and vehicle were administered as a series of 3 intraperitoneal injections 24 h, 5 h and 1 h before the 5 minute test on the second day.
(§1) The results are expressed as the percentage of variation of the total duration of immobility calculated from the mean value of the vehicle-treated group (% variation=[(immobility duration of vehicle-immobility duration of test compound)/(immobility duration of vehicle)]×100%).

[2] = target: T1, norepinephrine transporter (Homo sapiens, UniProt P23975); assay: NE uptake: displacement of norephinephrine ligands in vitro (methods of Galli et al.); type: binding; conditions: NE Uptake, Uptake Profile (IC50, nM)
T1 sequence (P23975 whole entry): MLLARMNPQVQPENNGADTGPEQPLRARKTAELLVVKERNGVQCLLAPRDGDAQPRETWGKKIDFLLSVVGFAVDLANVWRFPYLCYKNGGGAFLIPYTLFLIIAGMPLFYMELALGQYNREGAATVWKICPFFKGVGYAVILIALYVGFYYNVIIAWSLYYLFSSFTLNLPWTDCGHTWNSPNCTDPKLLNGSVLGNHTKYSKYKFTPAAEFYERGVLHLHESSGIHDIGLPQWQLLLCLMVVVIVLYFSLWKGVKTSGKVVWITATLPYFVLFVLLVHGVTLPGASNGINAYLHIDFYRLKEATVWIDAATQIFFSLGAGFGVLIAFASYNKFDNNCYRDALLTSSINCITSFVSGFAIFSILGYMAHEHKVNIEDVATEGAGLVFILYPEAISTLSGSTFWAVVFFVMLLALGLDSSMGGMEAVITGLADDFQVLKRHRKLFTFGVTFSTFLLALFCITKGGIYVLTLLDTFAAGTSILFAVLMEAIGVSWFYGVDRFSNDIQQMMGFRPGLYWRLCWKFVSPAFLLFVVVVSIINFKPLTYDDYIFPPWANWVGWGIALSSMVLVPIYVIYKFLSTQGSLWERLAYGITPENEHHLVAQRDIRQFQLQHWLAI

[3] = target: T1, norepinephrine transporter; assay: Functional activity, norephinephrine uptake inhibition in MDCK cell lines; type: cell-based
DAT = DAT (Homo sapiens, UniProt Q01959); assay: cell-based; set-up: expressed in transfected cells; conditions: hDAT cell line; read-out: DA Uptake, Functional Assays (antagonism, EC50)
Chain of DAT (Q01959 whole entry): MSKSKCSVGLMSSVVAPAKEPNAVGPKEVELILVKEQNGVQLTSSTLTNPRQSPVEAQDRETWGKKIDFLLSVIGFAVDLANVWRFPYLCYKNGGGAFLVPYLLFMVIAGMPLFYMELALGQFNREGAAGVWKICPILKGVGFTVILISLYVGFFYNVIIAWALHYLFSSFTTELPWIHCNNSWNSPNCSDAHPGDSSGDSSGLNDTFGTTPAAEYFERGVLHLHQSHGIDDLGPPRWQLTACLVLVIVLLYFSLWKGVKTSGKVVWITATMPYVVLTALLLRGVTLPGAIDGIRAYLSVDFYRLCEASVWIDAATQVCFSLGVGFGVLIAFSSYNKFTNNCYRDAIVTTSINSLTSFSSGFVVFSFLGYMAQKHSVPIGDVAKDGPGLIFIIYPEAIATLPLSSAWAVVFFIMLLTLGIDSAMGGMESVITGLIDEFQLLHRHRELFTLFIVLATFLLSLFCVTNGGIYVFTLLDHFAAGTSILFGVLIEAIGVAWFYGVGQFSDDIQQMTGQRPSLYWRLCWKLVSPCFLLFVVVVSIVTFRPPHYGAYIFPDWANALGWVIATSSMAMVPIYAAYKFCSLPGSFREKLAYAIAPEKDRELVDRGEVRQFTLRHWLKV

serotonin transporter [4] = target: T2, serotonin transporter (Homo sapiens, UniProt P31645); assay: 5-HT uptake: displacement of serotonin ligands in vitro (methods of Gu et al.); type: binding; conditions: displacement of serotonin ligands in vitro; read-out: 5-HT Uptake, Uptake Profile (IC50)
T2 sequence (P31645 whole entry): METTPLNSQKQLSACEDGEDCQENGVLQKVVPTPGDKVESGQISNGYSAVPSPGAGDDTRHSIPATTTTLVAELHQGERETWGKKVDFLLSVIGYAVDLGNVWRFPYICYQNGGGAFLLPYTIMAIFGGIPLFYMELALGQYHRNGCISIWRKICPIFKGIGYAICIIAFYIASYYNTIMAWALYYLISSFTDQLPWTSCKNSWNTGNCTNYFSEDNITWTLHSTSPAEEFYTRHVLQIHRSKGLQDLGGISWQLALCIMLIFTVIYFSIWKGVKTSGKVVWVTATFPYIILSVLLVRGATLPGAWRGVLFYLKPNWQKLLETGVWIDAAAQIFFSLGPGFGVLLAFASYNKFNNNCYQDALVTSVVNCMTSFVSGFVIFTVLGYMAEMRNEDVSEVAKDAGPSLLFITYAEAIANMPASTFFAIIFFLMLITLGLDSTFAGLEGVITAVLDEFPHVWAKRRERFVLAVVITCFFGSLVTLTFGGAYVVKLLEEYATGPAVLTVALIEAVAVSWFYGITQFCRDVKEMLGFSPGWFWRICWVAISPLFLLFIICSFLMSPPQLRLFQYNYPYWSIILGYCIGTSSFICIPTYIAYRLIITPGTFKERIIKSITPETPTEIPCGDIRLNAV

rats [5] = type: in vivo, rat; conditions: 1 h before test
Experimental: The animals were preconditioned in a pretest session, where the rats were individually forced to swim inside a vertical plexiglass cylinder containing water maintained at 19-20° C. […] Twenty four hours later, the compounds were administered intraperitoneal to the animals. One hour after administration of the test compound, animals were put back into the cylinder containing water. The total duration of immobility was measured during the last 4 minutes of a 6 minute test.
as §1

dopamine transporter = dopamine transporter (Homo sapiens, UniProt Q01959); assay: DA uptake: displacement of dopamine ligands in vitro (methods of Gu et al.); conditions: DA Uptake, Uptake Profile (IC50, nM), displacement of dopamine ligands in vitro
Chain of dopamine transporter (Q01959 whole entry): as the sequence (Q01959 whole entry) above

mouse = assay: Acute toxicity assessment, maximum tolerated dose i.v., mouse; type: in vivo; conditions: mice, 30 mg/kg i.v.
Experimental: (§2) An in vivo evaluation was carried out to determine the maximum tolerated dose of numerous test compounds in two animal species (mouse and rat). The compounds were administered i.v. and the animals were then observed for 72 h. Compounds 114, 115, 113, 110, 124, 125, 129, and 130 were solubilized in 5% dextrose (w/v)/polyethylene glycol 400 (4:1 v/v). Compounds 126, 127, 131, and 132 were solubilized in 10% hydroxypropyl-β-cyclodextrin (w/v).

rat = assay: Acute toxicity assessment, maximum tolerated dose i.v., rat; type: in vivo; conditions: rats, 30 mg/kg i.v.
Experimental: as §2

serotonin transporter [6] = target: T2, serotonin transporter; assay: Functional activity, serotonin uptake inhibition in human HEK-293 cell lines; type: cell-based; set-up: expressed in transfected cells; host or cells: HEK-293; conditions: human HEK-293 cell lines; read-out: 5-HT Uptake, Functional Assays (antagonism, EC50)

O[C@@H](CN1CCC[C@@H](COc2ccc(C(F)(F)F)cc2)C1)C1(c2ccc(Cl)cc2)CCC1 [compound 127, 1S-1-[1-(4-Chloro-phenyl)-cyclobutyl]-2-[(3R)-3-(4-trifluoromethyl-phenoxymethyl)-piperidin-1-yl]-ethanol]
% variation of the total duration of immobility (rats [1]; 1.0 mg/kg): 14%
% variation of the total duration of immobility (rats [1]; 2.0 mg/kg): 39%
effectiveness (statistically significant variation >30%) (rats [1]; 2.5 mg/kg): effective
% variation of the total duration of immobility (rats [1]; 2.5 mg/kg): 39%
% variation of the total duration of immobility (rats [1]; 3.0 mg/kg): 64%
IC50 [2]: < 100 nM
EC50 [3]: < 1000 nM
EC50 (DAT): < 10 nM
IC50 (serotonin transporter [4]): > 1000 nM
% variation of the total duration of immobility (rats [5]; 2.5 mg/kg i.p.): 25%
% variation of the total duration of immobility (rats [5]; 10 mg/kg i.p.): 67%
IC50 (dopamine transporter): < 10 nM
tolerability and mortality after 72 h (mouse): well tolerated
tolerability and mortality after 72 h (rat): well tolerated
EC50 (serotonin transporter [6]): > 1000 nM
